# Measurements as given in US11014933B2 (priority 2018, dated 2021).
# Structures can show the parent of a compound that is named as a salt. Where two headings read alike, the source gives them in different places.
# What was measured:
# MOR [1] = target: T1, MOR (Mus musculus, UniProt P42866); test: biochemical
# MOR [2] = target: T1, MOR; conditions: for EC50: read-out: MOR 35S-GTP[γS] Binding EC50; for MOR 35S-GTP[γS] Binding % Emax of DAMGO: relative to 3 μM DAMGO
# KOR [3] = target: T2, KOR (Homo sapiens, UniProt P41145); test: biochemical; type: binding
# T2 construct: expressed in transfected cells; host or cells: CHO
# T2 sequence (P41145 whole entry): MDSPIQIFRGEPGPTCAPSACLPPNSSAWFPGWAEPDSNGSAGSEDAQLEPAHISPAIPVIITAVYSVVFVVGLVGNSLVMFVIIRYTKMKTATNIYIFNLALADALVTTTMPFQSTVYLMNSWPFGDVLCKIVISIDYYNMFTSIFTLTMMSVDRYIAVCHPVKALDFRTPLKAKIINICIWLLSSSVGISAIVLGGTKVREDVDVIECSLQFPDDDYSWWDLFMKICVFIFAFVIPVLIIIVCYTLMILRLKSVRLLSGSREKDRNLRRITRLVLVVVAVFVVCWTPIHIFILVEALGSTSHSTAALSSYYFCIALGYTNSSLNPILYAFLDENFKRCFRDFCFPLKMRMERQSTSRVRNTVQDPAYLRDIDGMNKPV
# Swiss Webster mice = test: Tail immersion assay (agonism, and antagonism of morphine); type: in vivo, mouse; conditions: for % MPE of morphine (10 mg/kg) in the presence of test compound (antagonism): test compound 10 mg/kg s.c., 5 min before morphine; for AD50 (antagonism of morphine antinociception): 95% confidence level in brackets
# morphine-pelleted mice = test: Withdrawal study in morphine-pelleted mice
# DOR [4] = target: T3, DOR (Homo sapiens, UniProt P41143); test: biochemical; type: binding; parameters: expressed in transfected cells; host or cells: CHO
# T3 sequence (P41143 whole entry): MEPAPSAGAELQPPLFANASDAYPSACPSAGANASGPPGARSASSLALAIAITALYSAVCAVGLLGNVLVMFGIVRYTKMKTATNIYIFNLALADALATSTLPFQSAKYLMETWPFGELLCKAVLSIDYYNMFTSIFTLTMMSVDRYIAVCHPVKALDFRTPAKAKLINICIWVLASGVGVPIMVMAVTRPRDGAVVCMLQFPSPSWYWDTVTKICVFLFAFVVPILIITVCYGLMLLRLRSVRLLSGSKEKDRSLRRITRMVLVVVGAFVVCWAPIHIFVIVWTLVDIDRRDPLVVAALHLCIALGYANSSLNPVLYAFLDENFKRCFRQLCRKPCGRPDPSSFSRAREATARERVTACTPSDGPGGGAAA
# MOR [5] = target: T1, MOR; test: Competition radioligand binding, MOR ([3H]naloxone); parameters: expressed in transfected cells; host or cells: CHO; conditions: CHO cell membranes
# MOR [6] = target: T1, MOR; conditions: 24 h pretreatment (DAMGO, morphine 5 μM; nalbuphine, naltrexone 1 μM); previously published; cited from earlier work
# MOR [7] = target: T1, MOR; test: Desensitization study: DAMGO-induced [35S]GTPγS binding after ligand pretreatment of mMOR-CHO cells; type: cell-based; parameters: expressed in transfected cells; host or cells: CHO
# Caco-2 monolayers [8] = conditions: related study, cited from earlier work
# P-gp = test: Caco-2 bidirectional transport assay; conditions: human
# Caco-2 monolayers [9] = test: Caco-2 bidirectional transport assay
# mouse μ opioid receptor = mouse μ opioid receptor (Mus musculus, UniProt P42866); test: Calcium mobilization assay in mMOR-CHO cells; type: cell-based
# Sequence of mouse μ opioid receptor (P42866 whole entry): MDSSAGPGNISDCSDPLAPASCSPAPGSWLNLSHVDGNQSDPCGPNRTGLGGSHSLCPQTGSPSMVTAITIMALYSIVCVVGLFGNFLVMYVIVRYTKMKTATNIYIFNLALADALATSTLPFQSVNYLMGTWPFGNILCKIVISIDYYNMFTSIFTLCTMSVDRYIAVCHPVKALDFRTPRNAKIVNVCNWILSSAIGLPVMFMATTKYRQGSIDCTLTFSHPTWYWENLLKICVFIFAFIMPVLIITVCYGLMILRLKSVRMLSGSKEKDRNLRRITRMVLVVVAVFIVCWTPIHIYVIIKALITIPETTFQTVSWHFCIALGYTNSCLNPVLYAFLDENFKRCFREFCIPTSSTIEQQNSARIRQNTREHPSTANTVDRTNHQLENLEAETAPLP
# rat MOR = target: T4, rat MOR (Rattus norvegicus, UniProt P33535); type: cell-based
# T4 construct: expressed in transfected cells; host or cells: Neuro2A murine neuroblastoma cells (clones H38 and H16)
# T4 sequence (P33535 whole entry): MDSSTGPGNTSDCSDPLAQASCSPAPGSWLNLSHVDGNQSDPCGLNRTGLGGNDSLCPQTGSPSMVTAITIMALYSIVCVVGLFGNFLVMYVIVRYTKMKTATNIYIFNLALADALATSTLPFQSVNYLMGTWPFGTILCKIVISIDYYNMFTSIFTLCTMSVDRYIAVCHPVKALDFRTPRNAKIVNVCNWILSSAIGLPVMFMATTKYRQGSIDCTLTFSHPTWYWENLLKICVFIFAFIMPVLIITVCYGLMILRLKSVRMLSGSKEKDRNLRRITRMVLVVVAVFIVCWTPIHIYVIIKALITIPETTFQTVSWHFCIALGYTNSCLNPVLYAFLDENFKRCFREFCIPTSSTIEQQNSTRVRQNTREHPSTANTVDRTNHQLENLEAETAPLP
# C57BL/6J mice = test: Warm-water tail-withdrawal test with cumulative morphine dosing; type: in vivo, mouse
# MOR [10] = target: T1, MOR; parameters: expressed in transfected cells; host or cells: CHO; conditions: read-out: Ki MOR; [3H]naloxone; values from reference 44a/57a; cited from earlier work
# KOR [11] = target: T2, KOR; conditions: values from reference 44a/57a; cited from earlier work
# DOR [12] = target: T3, DOR; conditions: values from reference 44a/57a; cited from earlier work
# MOR [13] = target: T1, MOR; conditions: values from reference 44a/57a, cited from earlier work
# [14] = read-out: MOR 35S-GTP[γS] Binding % Emax of DAMGO, relative to 3 μM DAMGO
# T1 sequence (P42866 whole entry): as the sequence (P42866 whole entry) above
compound,measurement,setting,value
N#Cc1cnccc1C(=O)N[C@@H]1CC[C@@]2(O)[C@H]3Cc4ccc(O)c5c4[C@@]2(CCN3CC2CC2)[C@H]1O5 [Compound 2],Emax,MOR [1]; [14],26.1 ± 0.74%
same,EC50,MOR [2]; MOR-CHO membranes,1.28 ± 0.2 nM
same,Ki,KOR [3],2.74 ± 0.47 nM
same,% MPE of morphine (10 mg/kg) in the presence of test compound (antagonism),Swiss Webster mice; listed as 2 (NYP),antagonized morphine's antinociception effect significantly
same,% MPE of morphine (10 mg/kg) in the presence of test compound (antagonism),Swiss Webster mice; listed as NYP,7.8±5.4%
same,Wet dog shakes and jumps versus naloxone 1 mg/kg,morphine-pelleted mice; 1 mg/kg s.c.,significantly fewer wet dog shakes and jumps
same,Ki,DOR [4],46.3 ± 7.86 nM
same,Ki,MOR [5],0.87 ± 0.09 nM
O=C(N[C@@H]1CC[C@@]2(O)[C@H]3Cc4ccc(O)c5c4[C@@]2(CCN3CC2CC2)[C@H]1O5)c1ccncc1-c1ccccc1 [Compound 12],Emax,MOR [1]; [14],44.4 ± 3.12%
same,EC50,MOR [2]; MOR-CHO membranes,1.46 ± 0.18 nM
same,Ki,KOR [3],3.42 ± 0.38 nM
same,Ki,DOR [4],44.8 ± 3.7 nM
same,Ki,MOR [5],0.63 ± 0.05 nM
COc1cc(C(=O)N[C@@H]2CCC3(O)C4Cc5ccc(O)c6c5[C@@]3(CCN4CC3CC3)[C@H]2O6)ccn1 (some centres unmarked) (as salt: hydrochloride),melting point,,244 to 248 °C (dec.)
CC(C)Cc1cnccc1C(=O)N[C@@H]1CC[C@@]2(O)[C@H]3Cc4ccc(O)c5c4[C@@]2(CCN3CC2CC2)[C@H]1O5 [Compound 8],Emax,MOR [1]; [14],27.3 ± 0.25%
same,MOR 35S-GTP[γS] Binding EC50,MOR [2]; MOR-CHO membranes,lowest potency
same,EC50,MOR [2]; MOR-CHO membranes,19.7 ± 2.37 nM
same,Ki,KOR [3],75.6 ± 3.87 nM
same,Ki,DOR [4],149 ± 16 nM
same,Ki,MOR [5],7.2 ± 0.81 nM
same,Ki MOR,MOR [5],nanomolar binding affinity
"C[C@@H](NC(=O)[C@@H](N)Cc1ccc(O)cc1)C(=O)NCC(=O)N(C)[C@@H](Cc1ccccc1)C(=O)NCCO [DAMGO, reference compound]",Emax of DAMGO-stimulated [35S]GTPγS binding after pretreatment (net),MOR [6],121.62 ± 13.78 fmol/mg
same,Increase of DAMGO EC50 compared with vehicle treated group,MOR [7]; pretreated mMOR-CHO cells,~4 fold
"C=CCN1CC[C@]23c4c5ccc(O)c4O[C@H]2C(=O)CC[C@@]3(O)[C@H]1C5 [naloxone, reference compound]",AD50 (antagonism of morphine antinociception),Swiss Webster mice,0.05 mg/kg
O=C(N[C@@H]1CCC2(O)C3Cc4ccc(O)c5c4[C@@]2(CCN3CC2CC2)[C@H]1O5)c1ccnc(Cl)c1 (some centres unmarked) (as salt: hydrochloride),melting point,,> 250 °C
"O=C(Cc1ccncc1C(F)(F)F)N[C@@H]1CC[C@@]2(O)[C@H]3Cc4ccc(O)c5c4[C@@]2(CCN3CC2CC2)[C@H]1O5 [Compound 4, 17-Cyclopropylmetyl-3,14β-dihydroxy-4,5α-epoxy-6β-[(3′-trifluromethyl-4′-pyridyl)acetamido]morphinan]",EC50,MOR [2]; MOR-CHO membranes,1.38 ± 0.2 nM
same,MOR 35S-GTP[γS] Binding % Emax of DAMGO,MOR [2],31.88 ± 3.39%
same,Selectivity κ/μ,KOR [3],29.1
same,Ki,KOR [3]; read-out: Ki KOR,12.5 ± 0.89 nM
same,Selectivity δ/μ,DOR [4],143.7
same,Ki,DOR [4]; read-out: Ki DOR,61.8 ± 5 nM
same,Ki,MOR [5],0.43 ± 0.01 nM
C[C@H]1O[C@@H](O[C@H]2[C@@H](O)C[C@H](O[C@H]3[C@@H](O)C[C@H](O[C@H]4CC[C@@]5(C)[C@H](CC[C@@H]6[C@@H]5C[C@@H](O)[C@]5(C)[C@@H](C7=CC(=O)OC7)CC[C@]65O)C4)O[C@@H]3C)O[C@@H]2C)C[C@H](O)[C@@H]1O [digoxin],PDR,Caco-2 monolayers [8]; after elacridar was added,1.2
same,PDR,Caco-2 monolayers [8]; without elacridar,5.1
O=C(N[C@@H]1CC[C@@]2(O)[C@H]3Cc4ccc(O)c5c4[C@@]2(CCN3CC2CC2)[C@H]1O5)c1ccncc1F [Compound 1],"efflux ratio at 2 h, 20 μM","P-gp; Caco-2, pH 7.4",7 ± 0.5
same,"efflux ratio at 2 h, 20 μM","P-gp; Caco-2, pH 7.4, with elacridar 1 μM",1.3 ± 0.3
same,P-gp substrate,"Caco-2 monolayers [9]; Caco-2, with or without elacridar",may be a P-gp substrate
same,"Papp, B-A (efflux) compared with Papp, A-B (absorption)","Caco-2 monolayers [9]; NFP 20 μM, 37° C., 2 h",much higher
same,Emax,"MOR [1]; read-out: Emax, stimulation of [35S]GTPγS binding (normalized to DAMGO), mMOR-CHO membranes, ligand alone, concentration-effect curve",34.9 ± 1.5%
same,Emax,MOR [1]; [14],35 ± 3.07%
same,Emax,"MOR [1]; read-out: Maximal inhibition (minimum) as % of maximal stimulation produced by DAMGO, in the presence of 0.3 μM DAMGO, mMOR-CHO membranes",37.7 ± 1.5%
same,Relative efficacy versus naltrexone,MOR [2]; mMOR-CHO membranes,~3 fold
same,EC50,MOR [2]; MOR-CHO membranes,1.2 ± 0.19 nM
same,Ki,KOR [3],4.8 ± 0.26 nM
same,AD50 (antagonism of morphine antinociception),Swiss Webster mice,2.82 (1.34-5.94) mg/kg
same,% MPE of morphine (10 mg/kg) in the presence of test compound (antagonism),Swiss Webster mice; listed as 1 (NFP),antagonized morphine's antinociception effect significantly
same,% MPE of morphine (10 mg/kg) in the presence of test compound (antagonism),Swiss Webster mice; listed as NFP,6.2±2.4%
same,IC50,mouse μ opioid receptor,76.1 ± 2.5 nM
same,"EC50, Ca2+ signal (agonist mode)","mouse μ opioid receptor; mMOR-CHO cells transfected with Gαqi5, up to 3 μM",did not induce any apparent Ca^2+ signal
same,Internalization of the MOR,rat MOR,did not
same,"Antinociception (% MPE) of morphine in NFP group relative to vehicle-treated group, Day 1","C57BL/6J mice; NFP 0.3 mg/kg s.c. pretreatment, 10 mg/kg cumulative morphine, p=0.0013",significantly less antinociception
same,"Antinociception (% MPE) of morphine in NFP group relative to Vehicle Group, Day 7","C57BL/6J mice; after five days of 10 mg/kg morphine + 0.3 mg/kg NFP, 32 mg/kg cumulative morphine, p=0.0138",significantly less antinociception
same,"Wet dog shakes, jumps and paw tremors versus naloxone 1 mg/kg","morphine-pelleted mice; 10 mg/kg s.c., 20 min","significantly fewer wet dog shakes, jumps, and paw tremors"
same,Jumps versus naloxone 1 mg/kg,morphine-pelleted mice; 50 mg/kg s.c.,significantly fewer jumps
same,Wet dog shakes and paw tremors versus naloxone 1 mg/kg,morphine-pelleted mice; 50 and 100 mg/kg s.c.,not significantly different from those of naloxone
same,Ki,DOR [4],157 ± 7.81 nM
same,Ki,MOR [5],0.36 ± 0.02 nM
same,Emax of DAMGO-stimulated [35S]GTPγS binding after pretreatment (net),"MOR [7]; NFP 1 μM, 24 h pretreatment of mMOR-CHO cells",156.20 ± 13.83 fmol/mg
"17-Cyclopropylmetyl-3,14β-dihydroxy-4,5α-epoxy-6β-[(3′-carboxyl-4′-pyridyl) acetamido]morphinan [Compound 5]",EC50,MOR [2]; MOR-CHO membranes,1.83 ± 0.18 nM
same,MOR 35S-GTP[γS] Binding % Emax of DAMGO,MOR [2],29.27 ± 1.42%
same,Selectivity κ/μ,KOR [3],3.2
same,Ki,KOR [3]; read-out: Ki KOR,2.43 ± 0.19 nM
same,Selectivity δ/μ,DOR [4],73.2
same,Ki,DOR [4]; read-out: Ki DOR,55.6 ± 6.02 nM
same,Ki,MOR [5],0.76 ± 0.08 nM
O=C(N[C@@H]1CCC2(O)C3Cc4ccc(O)c5c4[C@@]2(CCN3CC2CC2)[C@H]1O5)c1ccnc(Br)c1 (some centres unmarked) (as salt: hydrochloride),melting point,,> 250 °C
O=C(N[C@@H]1CC[C@@]2(O)[C@H]3Cc4ccc(O)c5c4[C@@]2(CCN3CC2CC2)[C@H]1O5)c1ccncc1C1CCCCC1 [Compound 10],Emax,MOR [1]; [14],51.6 ± 3.73%
same,EC50,MOR [2]; MOR-CHO membranes,2.46 ± 0.3 nM
same,Ki,KOR [3],3.32 ± 0.54 nM
same,Ki,DOR [4],11.2 ± 1.91 nM
same,Ki,MOR [5],0.78 ± 0.09 nM
Cc1cc(C(=O)N[C@@H]2CCC3(O)C4Cc5ccc(O)c6c5[C@@]3(CCN4CC3CC3)[C@H]2O6)ccn1 (some centres unmarked) (as salt: hydrochloride),melting point,,248 °C (dec.)
"Cc1cnccc1C(=O)N[C@@H]1CC[C@@]2(O)[C@H]3Cc4ccc(O)c5c4[C@@]2(CCN3CC2CC2)[C@H]1O5 [NMP, N-((4R,4aS,7R,7aR,12bS)-3-(cyclopropylmethyl)-4a,9-dihydroxy-2,3,4,4a,5,6,7,7a-octahydro-1H-4,12-methanobenzofuro[3,2-e]isoquinolin-7-yl)-3-methylisonicotinamide]",Ki,MOR [10],0.58 ± 0.25 nM
same,Selectivity κ/μ,KOR [11],166
same,Selectivity δ/μ,DOR [12],470
same,EC50,MOR [13]; read-out: MOR 35S-GTP[γS] Binding EC50,1.52 ± 0.26 nM
same,MOR 35S-GTP[γS] Binding % Emax of DAMGO,MOR [13],30.63 ± 0.55%
